Read-outs that look alike come from different tables or passages of the source.
Legend:
[1] = test system: EGFR Del19/T790M/C797S (H1975-clone #28); experiment: EGFR degradation HTRF assay, H1975-clone #28 DTC cells; format: cell-based
Method in brief: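 Compounds (top 10 uM, 5-fold, 8 points, 0.2% DMSO) incubated 16 h at 37 °C on homozygous clones: #23 Del19/C797S, #28 Del19/T790M/C797S, exogenous EGFR only in H1975. HTRF on lysates quantified remaining EGFR relative to DMSO; four-parameter fit gave DC50 and Dmax.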

[2] = target: T1, EGFR L858R/T790M/C797S (BaF3-LTC cells) (Homo sapiens, UniProt P00533, C797S/L858R/T790M); experiment: EGFR degradation HTRF assay, BaF3-LTC cells; format: cell-based
T1 construct: expressed in transfected cells; host or cells: BaF3
T1 sequence (P00533 25-1210 T790M/C797S/L858R): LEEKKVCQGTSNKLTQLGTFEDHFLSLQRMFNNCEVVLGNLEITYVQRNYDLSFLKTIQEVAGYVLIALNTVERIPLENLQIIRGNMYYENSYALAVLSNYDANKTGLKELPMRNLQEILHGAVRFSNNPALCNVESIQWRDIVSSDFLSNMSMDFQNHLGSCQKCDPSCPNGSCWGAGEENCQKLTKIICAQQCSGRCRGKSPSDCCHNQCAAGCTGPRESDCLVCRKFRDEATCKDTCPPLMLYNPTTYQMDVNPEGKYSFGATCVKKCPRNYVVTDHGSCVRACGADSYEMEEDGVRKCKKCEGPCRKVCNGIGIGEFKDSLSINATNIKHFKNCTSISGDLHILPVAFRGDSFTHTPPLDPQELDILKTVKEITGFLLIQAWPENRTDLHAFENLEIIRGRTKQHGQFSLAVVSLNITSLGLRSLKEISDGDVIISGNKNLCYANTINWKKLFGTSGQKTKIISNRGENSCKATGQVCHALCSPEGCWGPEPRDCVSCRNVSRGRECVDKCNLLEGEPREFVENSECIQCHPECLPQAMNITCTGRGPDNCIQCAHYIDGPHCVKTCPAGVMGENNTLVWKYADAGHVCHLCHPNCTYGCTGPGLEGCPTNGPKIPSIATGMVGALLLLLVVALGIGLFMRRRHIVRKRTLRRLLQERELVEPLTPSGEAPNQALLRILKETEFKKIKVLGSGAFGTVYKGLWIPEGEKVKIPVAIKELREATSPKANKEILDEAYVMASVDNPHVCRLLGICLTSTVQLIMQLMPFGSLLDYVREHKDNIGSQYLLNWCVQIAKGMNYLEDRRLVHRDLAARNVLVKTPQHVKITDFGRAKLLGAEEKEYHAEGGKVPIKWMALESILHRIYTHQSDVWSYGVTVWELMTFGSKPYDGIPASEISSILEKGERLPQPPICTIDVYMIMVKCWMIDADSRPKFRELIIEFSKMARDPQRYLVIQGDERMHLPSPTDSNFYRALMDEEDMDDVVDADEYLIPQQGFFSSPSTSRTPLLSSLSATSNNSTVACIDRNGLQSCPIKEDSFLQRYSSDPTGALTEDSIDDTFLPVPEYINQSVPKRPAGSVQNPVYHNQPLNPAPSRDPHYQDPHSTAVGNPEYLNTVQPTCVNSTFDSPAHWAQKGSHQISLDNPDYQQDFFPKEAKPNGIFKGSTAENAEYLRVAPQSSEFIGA
Method in brief: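 EGFR remaining after a 16 h, 37 °C exposure (8 doses, 5-fold steps from 10 uM final, 0.2% DMSO) was quantified by HTRF antibodies in cell lysate. Percent inhibition relative to DMSO control was fitted by four-parameter logistic to give DC50; Dmax denotes maximal degradation.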

[3] = H1975 # 28 DTC cells; EGFR degradation, IC50 (DC50) from curve fit; read-out: DC50(nM) H1975 # 28 DTC
[4] = H1975 # 28 DTC cells; maximum percentage of inhibition (degradation)
[5] = BaF3-LTC cells; EGFR degradation, IC50 (DC50) from curve fit; read-out: DC50(nM) BaF3-LTC
[6] = BaF3-LTC cells; maximum percentage of inhibition (degradation); read-out: Dmax (%) BaF3-LTC

| Structure (SMILES) | DC50 [1, 3] [nM] | Dmax (%) H1975 # 28 DTC [1, 4] [%] | DC50 [2, 5] [nM] | Dmax [2, 6] [%] | DC50 ([1]; read-out: DC50(nM) H1975 # 28 DTC; H1975 # 28 DTC cells; EGFR degradation, IC50 (DC50) from curve fit) [nM] | DC50 ([2]; read-out: DC50(nM) BaF3-LTC; BaF3-LTC cells; EGFR degradation, IC50 (DC50) from curve fit) [nM] | Dmax ([2]; read-out: Dmax (%) BaF3-LTC, BaF3-LTC cells; maximum percentage of inhibition (degradation)) [%] |
| --- | --- | --- | --- | --- | --- | --- | --- |
| CCOc1cc(N2CCC(N3CCN(C(=O)C4CN(c5cc(F)cc6c5n(C)c(=O)n6C5CCC(=O)NC5=O)C4)CC3)CC2)c(CC)cc1Nc1ncc(Br)c(Nc2ccc3nc(CC)ccc3c2P(C)(C)=O)n1 (stereo not drawn) [Example 466, 3-(4-(3-(4-(1-(4-((5-bromo-4-((5-(dimethylphosphoryl)-2-ethylquinolin-6-yl)amino)pyrimidin-2-yl)amino)-5-ethoxy-2-ethylphenyl)piperidin-4-yl)piperazine-1-carbonyl)azetidin-1-yl)-6-fluoro-3-methyl-2-oxo-2,3-dihydro-1H-benzo[d]imidazol-1-yl)piperidine-2,6-dione] | 2.03 | 72.67 | 15.1 | 90.8 | – | – | – |
| CCc1cc(Nc2ncc(Br)c(Nc3ccc4nc(C#N)ccc4c3P(C)(C)=O)n2)c(OC)cc1N1CCC(N2CCN(CCc3cc(F)c([C@H]4CCC(=O)NC4=O)c(F)c3)CC2)CC1 [Example 682, (R)-6-((5-bromo-2-((4-(4-(4-(4-(2,6-dioxopiperidin-3-yl)-3,5-difluorophenethyl)piperazin-1-yl)piperidin-1-yl)-5-ethyl-2-methoxyphenyl)amino)pyrimidin-4-yl)amino)-5-(dimethylphosphoryl)quinoline-2-carbonitrile] | 0.91 | 87.08 | 6.79 | 95 | – | – | – |
| CCc1ncc2c(P(C)(C)=O)c(Nc3nc(Nc4cc(CC)c(N5CCC(N6CCN(C(=O)Cc7ccc8c(c7)oc(=O)n8C7CCC(=O)NC7=O)CC6)CC5)cc4OC)ncc3Br)ccc2n1 (stereo not drawn) [Example 646, 3-(6-(2-(4-(1-(4-((5-bromo-4-((5-(dimethylphosphoryl)-2-ethylquinazolin-6-yl)amino)pyrimidin-2-yl)amino)-2-ethyl-5-methoxyphenyl)piperidin-4-yl)piperazin-1-yl)-2-oxoethyl)-2-oxobenzo[d]oxazol-3(2H)-yl)piperidine-2,6-dione] | – | 74.64 | – | – | 0.627 | 6.2 | 94.5 |
| CCc1cc(Nc2ncc(Br)c(Nc3ccc4nc(C)ncc4c3P(C)(C)=O)n2)c(OC)cc1N1CCC(N2CCN(CCc3cc(F)c([C@H]4CCC(=O)NC4=O)c(F)c3)CC2)CC1 [Example 739, (R)-3-(4-(2-(4-(1-(4-((5-bromo-4-((5-(dimethylphosphoryl)-2-methylquinazolin-6-yl)amino)pyrimidin-2-yl)amino)-2-ethyl-5-methoxyphenyl)piperidin-4-yl)piperazin-1-yl)ethyl)-2,6-difluorophenyl)piperidine-2,6-dione] | 0.614 | 85.55 | 2.89 | – | – | – | – |
| CCOc1cc(N2CCC(N3CCN(CCCc4cccc5c4oc(=O)n5C4CCC(=O)NC4=O)CC3)CC2)c(CC)cc1Nc1ncc(Br)c(Nc2ccc3nc(CC)ccc3c2P(C)(C)=O)n1 (stereo not drawn) [Example 630, 3-(7-(3-(4-(1-(4-((5-bromo-4-((5-(dimethylphosphoryl)-2-ethylquinolin-6-yl)amino)pyrimidin-2-yl)amino)-5-ethoxy-2-ethylphenyl)piperidin-4-yl)piperazin-1-yl)propyl)-2-oxobenzo[d]oxazol-3(2H)-yl)piperidine-2,6-dione] | 1.14 | 72.34 | 8.65 | 91 | – | – | – |
| CCOc1cc(N2CCC(N3CCN(C[C@H]4CCN(c5cccc6c5oc(=O)n6C5CCC(=O)NC5=O)C4)CC3)CC2)c(CC)cc1Nc1ncc(Br)c(Nc2ccc3nc(CC)ccc3c2P(C)(C)=O)n1 (stereo partly drawn) [Example 561, 3-(7-((R)-3-((4-(1-(4-((5-bromo-4-((5-(dimethylphosphoryl)-2-ethylquinolin-6-yl)amino)pyrimidin-2-yl)amino)-5-ethoxy-2-ethylphenyl)piperidin-4-yl)piperazin-1-yl)methyl)pyrrolidin-1-yl)-2-oxobenzo[d]oxazol-3(2H)-yl)piperidine-2,6-dione] | 1.68 | 77.5 | 10.3 | 89.5 | – | – | – |
| CCc1cc(Nc2ncc(Br)c(Nc3ccc4nc(C)ccc4c3P(C)(C)=O)n2)c(OC2CC2)cc1N1CCC(N2CCN(CC3CN(c4cccc5c4oc(=O)n5C4CCC(=O)NC4=O)C3)CC2)CC1 (stereo not drawn) [Example 600, 3-(7-(3-((4-(1-(4-((5-bromo-4-((5-(dimethylphosphoryl)-2-methylquinolin-6-yl)amino)pyrimidin-2-yl)amino)-5-cyclopropoxy-2-ethylphenyl)piperidin-4-yl)piperazin-1-yl)methyl)azetidin-1-yl)-2-oxobenzo[d]oxazol-3(2H)-yl)piperidine-2,6-dione] | 1.18 | 83.32 | 4.11 | 87.4 | – | – | – |
| CCOc1cc(N2CCC(N3CCN(C(=O)CN4CCN(c5cc(F)c([C@H]6CCC(=O)NC6=O)c(F)c5)CC4)CC3)CC2)c(CC)cc1Nc1ncc(Br)c(Nc2ccc3c(=O)n(CC)ncc3c2P(C)(C)=O)n1 [Example 639, (R)-3-(4-(4-(2-(4-(1-(4-((5-bromo-4-((5-(dimethylphosphoryl)-2-ethyl-1-oxo-1,2-dihydrophthalazin-6-yl)amino)pyrimidin-2-yl)amino)-5-ethoxy-2-ethylphenyl)piperidin-4-yl)piperazin-1-yl)-2-oxoethyl)piperazin-1-yl)-2,6-difluorophenyl)piperidine-2,6-dione] | 0.71 | 86.93 | 4.06 | 94.3 | – | – | – |
| CCOc1cc(N2CCC(N3CCN(CCCc4cc(C)cc5c4oc(=O)n5C4CCC(=O)NC4=O)CC3)CC2)c(CC)cc1Nc1ncc(Br)c(Nc2ccc3nc(CC)ccc3c2P(C)(C)=O)n1 (stereo not drawn) [Example 636, 3-(7-(3-(4-(1-(4-((5-bromo-4-((5-(dimethylphosphoryl)-2-ethylquinolin-6-yl)amino)pyrimidin-2-yl)amino)-5-ethoxy-2-ethylphenyl)piperidin-4-yl)piperazin-1-yl)propyl)-5-methyl-2-oxobenzo[d]oxazol-3(2H)-yl)piperidine-2,6-dione] | 1.52 | 79.04 | 11 | 92.3 | – | – | – |
| COc1cc(N2CCC(N3CC(C(=O)N4CCC(c5cc(F)c(C6CCC(=O)NC6=O)c(F)c5)CC4)C3)CC2)c(C)cc1Nc1ncc(Br)c(Nc2ccc3nc(C)ccc3c2P(C)(C)=O)n1 (stereo not drawn) [Example 687, 3-(4-(1-(1-(1-(4-((5-bromo-4-((5-(dimethylphosphoryl)-2-methylquinolin-6-yl)amino)pyrimidin-2-yl)amino)-5-methoxy-2-methylphenyl)piperidin-4-yl)azetidine-3-carbonyl)piperidin-4-yl)-2,6-difluorophenyl)piperidine-2,6-dione] | 1.38 | 68.75 | 14.8 | 93.3 | – | – | – |
| CCOc1cc(N2CCC(N3CCN(CCc4cc(F)c(F)c5c4n(CC)c(=O)n5C4CCC(=O)NC4=O)CC3)CC2)c(CC)cc1Nc1ncc(Br)c(Nc2ccc3nc(CC)ccc3c2P(C)(C)=O)n1 (stereo not drawn) [Example 742, 3-(4-(2-(4-(1-(4-((5-bromo-4-((5-(dimethylphosphoryl)-2-ethylquinolin-6-yl)amino)pyrimidin-2-yl)amino)-5-ethoxy-2-ethylphenyl)piperidin-4-yl)piperazin-1-yl)ethyl)-3-ethyl-6,7-difluoro-2-oxo-2,3-dihydro-1H-benzo[d]imidazol-1-yl)piperidine-2,6-dione] | 3.52 | 68.91 | 36.5 | – | – | – | – |
